# Data taken from patent US20130040933A1, “AZAINDOLES AS JANUS KINASE INHIBITORS” (priority 2010, published 2013).
# Target: T1, rhJAK3 (Homo sapiens, UniProt P52333)
# T1 construct: recombinant purified GST-tagged catalytic domain for each enzyme; purchased Invitrogen PV3855
# Assay: JAK Biochemical HTRF Assay (JAK3)
# Details: recombinant purified GST-tagged catalytic domain, HTRF format, [ATP] 1.7 μM; read-out: JAK3 IC50
# Protocol: JAK Biochemical HTRF Assay Protocol
# The ability of compounds to inhibit the activity of JAK1, JAK2, JAK3, and TYK2 was measured using a recombinant purified GST-tagged catalytic domain for each enzyme (Invitrogen JAK1 #PV4774, JAK2 #PV4210, JAK3 #PV3855, TYK2 #PV4790) in an HTRF format biochemical assay. The reactions employed a common peptide substrate, LCB-EQEDEPEGDYFEWLW-NH2. The basic assay protocol is as follows: First, […] of diluted compounds in DMSO were dispensed into the wells of a dry 384-well Black plate (Greiner #781076) using a Labcyte Echo 555 acoustic dispenser. Subsequent reagent additions employed a Thermo Multidrop Combi nL. Next, 10 μL of 2× enzyme and 2× substrate in 1× assay buffer (Invitrogen kinase buffer #PV3189, 2 mM DTT, 0.05% BSA) were added to the wells and preincubated for 30 min at room temperature to allow compound binding to equilibrate. After equilibration, 10 μl, of 2×ATP in 1× assay buffer was added to initiate the kinase reaction and the plates were incubated at room temperature for 120 min. At the end of the incubation, 20 μL of 2× stop buffer containing streptavidin-Dylight (Thermo #21845) and Eu-tagged pY20 antibody (Perkin Elmer #AD0067) was added to quench the reaction. Plates were further incubated 60 min at room temperature with shaking and then read on a Perkin Elmer Envision (λex=337 nm, λem=665 and 615 nm, TRF delay time=20 μs). HTRF signal=10,000*665 nm reading/615 nm reading. After normalization to untreated controls, the percent inhibition of the HTRF signal at each compound concentration was calculated. The plot of percent inhibition vs. the log of compound concentration was fit with a 4-parameter dose response equation to calculate IC50 values.
# T1 sequence (P52333 822-1111 limits assumed): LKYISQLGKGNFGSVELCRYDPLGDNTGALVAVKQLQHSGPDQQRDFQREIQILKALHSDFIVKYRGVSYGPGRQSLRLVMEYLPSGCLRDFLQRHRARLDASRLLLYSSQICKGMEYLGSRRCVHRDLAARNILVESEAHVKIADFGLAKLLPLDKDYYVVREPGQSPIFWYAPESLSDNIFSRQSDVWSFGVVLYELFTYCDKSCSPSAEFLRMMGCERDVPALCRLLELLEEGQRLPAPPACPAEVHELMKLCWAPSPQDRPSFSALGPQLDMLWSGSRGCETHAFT
row,IC50,SMILES
1,≤ 0.001 µM,"C[C@@H](Nc1cncc(-c2c[nH]c3ncc(C4=CCOCC4)cc23)n1)C(=O)NCC(F)(F)F [Example 15-15, N^2-{6-[5-(3,6-dihydro-2H-pyran-4-yl)-1H-pyrrolo[2,3-b]pyridin-3-yl]pyrazin-2-yl}-N-(2,2,2-trifluoroethyl)-D-alaninamide]"
2,0.001 to 0.01 µM,"COC(=O)c1cnc2[nH]cc(-c3cncc(N[C@@H](C(=O)NCC(F)(F)F)C(C)C)n3)c2c1 [Example 16-3, Methyl 3-[6-({(2R)-3-methyl-1-oxo-1-[(2,2,2-trifluoroethyl)amino]butan-2-yl}-amino)pyrazin-2-yl]-1H-pyrrolo[2,3-b]-pyridine-5-carboxylate]"
3,≤ 0.001 µM,"C[C@@H](Nc1cncc(-c2c[nH]c3ncc(-c4cccnc4F)cc23)n1)C(=O)NCC(F)(F)F [Example 15-20, N^2-{6-[5-(2-fluoropyridin-3-yl)-1H-pyrrolo[2,3-b]pyridin-3-yl)pyrazin-2-yl}-N-(2,2,2-trifluoroethyl)-D-alaninamide]"
4,≤ 0.001 µM,"COc1cncc(-c2cnc3[nH]cc(-c4cncc(N[C@H](C)C(=O)NCC(F)(F)F)n4)c3c2)c1 [Example 15-18, N^2-{6-[5-(5-methoxypyridin-3-yl)-1H-pyrrolo[2,3-b]pyridin-3-yl]pyrazin-2-yl}-N-(2,2,2-trifluoroethyl)-D-alaninamide]"
5,0.001 to 0.01 µM,"C[C@@H](Nc1cncc(-c2c[nH]c3ncc(-c4ccnn4C)cc23)n1)C(=O)NCC(F)(F)F [Example 15-5, N^2-{6-[5-(1-methyl-1H-pyrazol-5-yl)-1H-pyrrolo[2,3-b]pyridin-3-yl]pyrazin-2-yl}-N-(2,2,2-trifluoroethyl)-D-alaninamide]"

# Same assay, conditions: recombinant purified GST-tagged catalytic domain, HTRF format, [ATP] 1.7 μM; read-out: rhJAK3 IC50
row,IC50,SMILES
1,0.1 to 1 µM,"Cc1cc(CNC(=O)[C@@H](C)Nc2cncc(-c3c[nH]c4ncc(Cl)cc34)n2)no1 [Example 2-6, N^2-[6-(5-chloro-1H-pyrrolo[2,3-b]-pyridin-3-yl)pyrazin-2-yl]-N-[(5 - methylisoxazol-3-yl)methyl]-D-alaninamide]"
2,≤ 0.001 µM,"CC1(C(=O)NCC(F)(F)F)CCN1c1cncc(-c2c[nH]c3ncc(Cl)cc23)n1 (stereo not shown) [Example 1-9, 1-[6-(5-chloro-1H-pyrrolo[2,3-b]pyridin-3-yl)pyrazin-2-yl]-2-methyl-N-(2,2,2-trifluoroethyl)azetidine-2-carboxamide]"
3,0.01 to 0.1 µM,"C[C@H](Nc1cncc(-c2c[nH]c3ncc(Cl)cc23)n1)C(=O)NCCC(F)(F)F [Example 2-22, N^2-[6-(5-chloro-1H-pyrrolo[2,3-b]-pyridin-3-yl)pyrazin-2-yl]-N-(3,3,3-trifluoropropyl)-L-alaninamide]"
4,≤ 0.001 µM,"O=C(NCC(F)(F)F)C1(Nc2cncc(-c3c[nH]c4ncc(Cl)cc34)n2)CCCC1 [Example 2-25, 1-{[6-(5-chloro-1H-pyrrolo[2,3-b]pyridin-3-yl)pyrazin-2-yl]amino}-N-(2,2,2-trifluoroethyl)cyclopentanecarboxamide]"
5,≤ 0.001 µM,"C[C@@H](Nc1cncc(-c2c[nH]c3ncc(-c4cnn(C)c4)cc23)n1)C(=O)NCC(F)(F)F [Example 14, N^2-{6-[5-(1-methyl-1H-pyrazol-4-yl)-1H-pyrrolo[2,3-b]pyridin-3-yl]pyrazin-2-yl}-N-(2,2,2-trifluoroethyl)-D-alaninamide]"
6,0.1 to 1 µM,"C[C@@H](Nc1cncc(-c2c[nH]c3ncc(Cl)cc23)n1)C(=O)NCC(=O)NC1CCCC1 [Example 2-16, N-[6-(5-chloro-1H-pyrrolo[2,3-b]-pyridin-3-yl)pyrazin-2-yl]-D-alanyl-N-cyclopentylglycinamide]"
7,0.01 to 0.1 µM,"CC(C)CNC(=O)[C@H](C)Nc1cncc(-c2c[nH]c3ncc(Cl)cc23)n1 [Example 2-23, N^2-[6-(5-chloro-1H-pyrrolo[2,3-b]-pyridin-3-yl)pyrazin-2-yl]-N-(2-methylpropyl)-L-alaninamide]"
8,0.01 to 0.1 µM,"C[C@H](Nc1cncc(-c2c[nH]c3ncc(Cl)cc23)n1)C(=O)N1CCC(F)(F)C1 [Example 2-3, 6-(5-chloro-1H-pyrrolo[2,3-b]-pyridin-3-yl)-N-[(1S)-2-(3,3-difluoropyrrolidin-1-yl)-1-methyl-2-oxoethyl]pyrazin-2-amine]"
9,0.1 to 1 µM,"C[C@@H](Nc1cncc(-c2c[nH]c3ncc(Cl)cc23)n1)C(=O)NCCc1cccs1 [Example 2-15, N^2-[6-(5-chloro-1H-pyrrolo[2,3-b]-pyridin-3-yl)pyrazin-2-yl]-N-(2-thiophen-2-ylethyl)-D-alaninamide]"
10,0.01 to 0.1 µM,"O=C(CCc1cncc(-c2c[nH]c3ncc(Cl)cc23)n1)NCC(F)(F)F [Example 12, 3-[6-(5-chloro-1H-pyrrolo[2,3-b]pyridin-3-yl)pyrazin-2-yl]-N-(2,2,2-trifluoroethyl)propanamide]"
11,0.1 to 1 µM,"C[C@@H](Nc1cncc(-c2c[nH]c3ncc(Cl)cc23)n1)C(=O)NCC(=O)N(C)C [Example 2-11, N-[6-(5-chloro-1H-pyrrolo[2,3-b]-pyridin-3-yl)pyrazin-2-yl]-D-alanyl-N,N-dimethylglycinamide]"
12,≤ 0.001 µM,"C[C@]1(C(=O)NCC(F)(F)F)CCN1c1cncc(-c2c[nH]c3ncc(Cl)cc23)n1 [Example 1-11, (2R)-1-[6-(5-chloro-1H-pyrrolo[2,3-b]pyridin-3-yl)pyrazin-2-yl]-2-methyl-N-(2,2,2-trifluoroethyl)azetidine-2-carboxamide]"
13,0.001 to 0.01 µM,"O=C(NCC(F)(F)F)[C@@H]1CCCN1c1cncc(-c2c[nH]c3ncc(Cl)cc23)n1 [Example 1-5, 1-[6-(5-chloro-1H-pyrrolo[2,3-b]pyridin-3-yl)-pyrazin-2-yl]-N-(2,2,2-trifluoroethyl)-L-prolinamide]"
14,≤ 0.001 µM,"CC(C)[C@@H](Nc1cncc(-c2c[nH]c3ncc(Cl)cc23)n1)C(=O)NCC(F)(F)F [Example 1-12, N^2-[6-(5-chloro-1H-pyrrolo[2,3-b]pyridin-3-yl)pyrazin-2-yl]-N-(2,2,2-trifluoroethyl)-D-valinamide]"
15,0.1 to 1 µM,"C[C@H](Nc1cncc(-c2c[nH]c3ncc(Cl)cc23)n1)C(=O)NCC(C)(C)C [Example 2-24, N^2-[6-(5-chloro-1H-pyrrolo[2,3-b]-pyridin-3-yl)pyrazin-2-yl]-N-(2,2-dimethylpropyl)-L-alaninamide]"
16,0.1 to 1 µM,"C[C@@H](Nc1cncc(-c2c[nH]c3ncc(Cl)cc23)n1)C(=O)NC1CCCCNC1=O (stereo partly drawn) [Example 2-13, N^2-[6-(5-chloro-1H-pyrrolo[2,3-b]-pyridin-3-yl)pyrazin-2-yl]-N-(2-oxoazepan-3-yl)-D-alaninamide]"
17,0.1 to 1 µM,"O=C(NCC(F)(F)F)c1ccc(-c2cncc(-c3c[nH]c4ncc(Cl)cc34)n2)cc1 [Example 10, 4-[6-(5-Chloro-1H-pyrrolo[2,3-b]pyridin-3-yl)pyrazin-2-yl]-N-(2,2,2-trifluoroethyl)benzamide]"
18,0.1 to 1 µM,"N#CCCNC(=O)Cc1cncc(-c2c[nH]c3ncc(Cl)cc23)n1 [Example 8-2, 2-[6-(5-chloro-1H-pyrrolo[2,3-b]-pyridin-3-yl)pyrazin-2-yl]-N-(2-cyanoethyl) acetamide]"
19,≤ 0.001 µM,"C[C@@H](Nc1cncc(-c2c[nH]c3ncc(Cl)cc23)n1)C(=O)NCC(F)(F)F [Example 1, N^2-[6-(5-Chloro-1H-pyrrolo[2,3-b]pyridin-3-yl)pyrazin-2-yl]-N-(2,2,2-trifluoroethyl)-D-alaninamide]"
20,≤ 0.001 µM,"C[C@H](Nc1cncc(-c2c[nH]c3ncc(Cl)cc23)n1)C(=O)NCC(F)(F)F [Example 2, N^2-[6-(5-Chloro-1H-pyrrolo[2,3-b]pyridin-3-yl)pyrazin-2-yl]-N-(2,2,2-trifluoroethyl)-L-alaninamide]"
